Test system: HGT-1 cells
Test: Intracellular pH / proton secretion of HGT-1 cell cultures (SNARF-1-AM dye)
Format: cell-based, human
Details: for activation at 30 µM: 0.03 mM substance of group (a) alone; for activation at 300 µM: 0.3 mM substance of group (a) alone; for stimulation of proton secretion by 3 mM caffeine or 0.3 mM theobromine (in words): additional administration at a concentration of 0.3 mM; for induced gastric acid secretion (in words): preparations with caffeine and/or theobromine as component (b); for proton secretion in the HGT-1 cells (in words): substances of group (b), Tables 1A and 1B
Method: Human parietal cells, also known as human gastric tumor cell line (HGT-1), are used as cell model. These were provided by Dr. C. Laboisse (Laboratory of Pathological Anatomy, Nantes, France). The cells were cultured under standard conditions at 37° C., 5% CO2 in DMEM (Dulbecco's Modified Eagle's Medium) with 4 g/l glucose, 10% FBS, 2% L-glutamine and 1% penicillin/streptomycin. For the measurement of the intracellular proton concentration, the cells are treated with trypsin/EDTA, the viability determined by means of trypan blue staining and 100 000 cells/well seeded in black 96-well plates.
To measure the intracellular pH, the dye 1,5-carboxyseminaphthorhodafluoro acetoxymethyl ester (SNARF-1-AM) is used. The cells in the 96-well plates are washed once with Krebs-Hepes buffer (KRHP) and incubated at 37° C. and 5% CO2 for 30 min with the dye dissolved in KRHP at a concentration of 3 μM. The cells are then washed twice with KRHP and substances of group (b), for example 3 mM caffeine or 0.3 mM theobromine, alone or in combination with substances of group (a), for example, homoeriodictyol (HED) or eriodictyol or matairesinol, lariciresinol or enterolactone, are applied in volumes of 100 μl at various concentrations in phenol red-free DMEM; as additional control experiments, the abovementioned substances of group (a) are tested alone. Homoeriodictyol is dissolved in double-distilled water while eriodictyol, matairesinol, lariciresinol or enterolactone are dissolved in ethanol (EtOH). The final concentration of solvent which is added to the cells is at most 1%. The fluorescent dye is excited at a wavelength of 488 nm and the emission measured at 580 nm and 640 nm. The ratio of the fluorescence values at 580 nm to 640 nm is compared to a calibration curve from which the pH can be determined. For the calibration curve, the cells are treated with a potassium phosphate buffer of different pH values from pH 7.2-8.2 and 2 μM nigericin. Nigericin equilibrates the intracellular and extracellular pH such that the intracellular pH may be defined. The intracellular H^+ concentration is determined from the intracellular pH. The intracellular proton index (IPX) is calculated by log 2 transformation of the ratio of treated cells and untreated cells (control). […] The number of replicates specified refers to the technical replicates (tr) or the number or total replicates (n), which results from the number of technical replicates multiplied by the number of biological replicates.

[1] = 0.03 mM substance of group (a) in combination with 0.3 mM theobromine, 10 minutes
[2] = 0.03 mM substance of group (a) in combination with 3 mM caffeine, 10 minutes
[3] = 0.3 mM substance of group (a) in combination with 0.3 mM theobromine, 10 minutes
[4] = 0.3 mM substance of group (a) in combination with 3 mM caffeine, 10 minutes
[5] = Homo sapiens, HGT-1, 10 min, 10 minutes, read-out: T/C [%], percentage increase of the proton secretion compared to untreated controls

SMILES | T/C [%], percentage increase of the proton secretion compared to untreated controls [1] | T/C [%], percentage increase of the proton secretion compared to untreated controls [2] | T/C [%], percentage increase of the proton secretion compared to untreated controls [3] | T/C [%], percentage increase of the proton secretion compared to untreated controls [4] | activation at 30 µM [5] | activation at 300 µM [5] | stimulation of proton secretion by 3 mM caffeine or 0.3 mM theobromine (in words) | induced gastric acid secretion (in words) | T/C [%], percentage increase of the proton secretion compared to untreated controls (0.003 mM substance of group (a) in combination with 0.3 mM theobromine, 10 minutes) | activation at 3 µM (Homo sapiens, HGT-1, 10 min, 0.003 mM substance of group (a) alone, 10 minutes, read-out: T/C [%], percentage increase of the proton secretion compared to untreated controls) | T/C [%], percentage increase of the proton secretion compared to untreated controls (0.3 mM substance of group (b) + 1% EtOH, 10 minutes stimulation) | proton secretion in the HGT-1 cells (in words) | activation at 1000 µM (Homo sapiens, HGT-1, 10 min, 1 mM substance alone, 10 minutes stimulation, read-out: T/C [%], percentage increase of the proton secretion compared to untreated controls) | T/C [%], percentage increase of the proton secretion compared to untreated controls (3 mM substance + 1% EtOH, 10 minutes stimulation)
COc1cc(C[C@H]2COC(=O)[C@@H]2Cc2ccc(O)c(OC)c2)ccc1O [Matairesinol, matairesinol] | 23.41% | 14.39% | −18.25% | −20.43% | -9.4% | -31.7% | reduced or completely inhibited | highest reduction or complete inhibition |  |  |  |  |  | 
O=C1OC[C@@H](Cc2cccc(O)c2)[C@@H]1Cc1cccc(O)c1 [Enterolactone, enterolactone] |  | 23.41% |  | −18.25% | -2.76% | -27.3% | reduced or completely inhibited | highest reduction or complete inhibition |  |  |  |  |  | 
COc1cc(C2CC(=O)c3c(O)cc(O)cc3O2)ccc1O (stereo not drawn) [HED, homoeriodictyol] | 13.79% | 37.99% | −16.92% | 20.18% | 12.7% | -3.66% | reduced or completely inhibited | highest reduction or complete inhibition | 21.56% | -8.04% |  |  |  | 
Cn1cnc2c1c(=O)[nH]c(=O)n2C [Theobromine, theobromine, reference compound] |  |  |  |  |  |  |  |  |  |  | 32.11% | stimulated |  | 
NCCc1c[nH]cn1 [Histamine, reference compound] |  |  |  |  |  |  |  |  |  |  |  |  | 27.4% | 
Cn1c(=O)c2c(ncn2C)n(C)c1=O [Caffeine, caffeine, reference compound] |  |  |  |  |  |  |  |  |  |  |  | stimulated |  | 44.92%
COc1cc(C[C@H]2CO[C@H](c3ccc(O)c(OC)c3)[C@H]2CO)ccc1O [Lariciresinol, lariciresinol] | 31.73% | 46.40% | 17.55% | 21.57% | 6.4% | -2.04% | reduced or completely inhibited | highest reduction or complete inhibition |  |  |  |  |  | 
O=C1CC(c2ccc(O)c(O)c2)Oc2cc(O)cc(O)c21 (stereo not drawn) [Eriodictyol, eriodictyol] | 23.95% | 29.69% | −42.86% | −33.96% | -10.8% | -11.7% | reduced or completely inhibited | highest reduction or complete inhibition |  |  |  |  |  | 

From patent publication US10226445B2, “Pharmaceutical preparations” (Symrise AG, priority 2013, dated 2019)
